We go through two molecules from article PMC7044277 (Nature Communications, 2020).

Type in all cases: cell-based
Holding throughout (design): GPCRome screening signal at PTGIR / GPCRome screening signal at PTH1R / GPCRome screening signal at PTH2R / GPCRome screening signal at QRFP / GPCRome screening signal at RXFP2 / GPCRome screening signal at RXFP3 / GPCRome screening signal at RXFP4 / GPCRome screening signal at S1PR2 / GPCRome screening signal at S1PR3 / GPCRome screening signal at S1PR4 / GPCRome screening signal at S1PR5 / GPCRome screening signal at SCTR / GPCRome screening signal at SSTR2 / GPCRome screening signal at SSSTR / GPCRome screening signal at SSTR4 / GPCRome screening signal at SSTR5 / GPCRome screening signal at SUCNR1 / GPCRome screening signal at TA1 / GPCRome screening signal at TAAR2 / GPCRome screening signal at TAAR5 / GPCRome screening signal at TAAR6 / GPCRome screening signal at TAAR8 / GPCRome screening signal at TACR1 / GPCRome screening signal at TACR2 / GPCRome screening signal at TACR3 / GPCRome screening signal at TBXA2R / GPCRome screening signal at TSHR / GPCRome screening signal at UTS2R / GPCRome screening signal at VIPR2 / GPCRome screening signal at GPR68 no V2 Tail / GPCRome screening signal at GRM2 / GPCRome screening signal at GRM3: reference not given here

Assay [1] has as its target T1, 320 non-olfactory GPCRs (Homo sapiens, UniProt Q14416).
T1 construct: expressed in transfected cells; host or cells: HTLA cells
The settings on record: receptor GRM2.

Assay [2] addresses T2, 320 non-olfactory GPCRs (Homo sapiens, UniProt P21731).
T2 construct: expressed in transfected cells; host or cells: HTLA cells
The settings on record: receptor TBXA2R.

Assay [3] addresses T3, 320 non-olfactory GPCRs (Homo sapiens, UniProt Q14832).
T3 construct: expressed in transfected cells; host or cells: HTLA cells
The settings on record: receptor GRM3.

The target in assay [4] is 320 non-olfactory GPCRs (Homo sapiens, UniProt P35346). Particulars: receptor SSTR5.
320 non-olfactory GPCRs (Homo sapiens, UniProt P35346), sequence (P35346 whole entry): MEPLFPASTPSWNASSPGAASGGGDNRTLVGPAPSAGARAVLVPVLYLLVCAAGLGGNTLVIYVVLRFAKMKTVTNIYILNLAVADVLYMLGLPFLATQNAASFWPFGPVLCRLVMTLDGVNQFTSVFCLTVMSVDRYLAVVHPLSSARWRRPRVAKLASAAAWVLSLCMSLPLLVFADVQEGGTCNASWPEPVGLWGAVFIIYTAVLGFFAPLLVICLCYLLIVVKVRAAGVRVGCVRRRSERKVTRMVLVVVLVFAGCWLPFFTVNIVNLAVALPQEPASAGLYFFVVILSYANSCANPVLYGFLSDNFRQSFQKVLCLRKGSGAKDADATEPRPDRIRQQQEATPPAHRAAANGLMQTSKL
Where [5] appears, read: Fig_5f, single replicate values.

“And” between values parts separate entries of the source, which are not always exact repeats. Equal entries are not always repeated.
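For GPCRome agonism screen response in this document: fold over basal response of each receptor without drug.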

T2 sequence (P21731 whole entry): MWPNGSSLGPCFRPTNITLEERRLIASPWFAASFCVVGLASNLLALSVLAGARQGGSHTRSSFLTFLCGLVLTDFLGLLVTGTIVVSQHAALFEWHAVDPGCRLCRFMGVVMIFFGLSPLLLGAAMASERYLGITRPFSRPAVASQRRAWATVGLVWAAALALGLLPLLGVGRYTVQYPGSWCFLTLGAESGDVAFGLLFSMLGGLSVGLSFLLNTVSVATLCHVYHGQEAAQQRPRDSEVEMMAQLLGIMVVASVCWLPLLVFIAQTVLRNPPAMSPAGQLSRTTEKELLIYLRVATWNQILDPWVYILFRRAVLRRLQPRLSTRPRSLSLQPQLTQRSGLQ
T3 sequence (Q14832 23-879): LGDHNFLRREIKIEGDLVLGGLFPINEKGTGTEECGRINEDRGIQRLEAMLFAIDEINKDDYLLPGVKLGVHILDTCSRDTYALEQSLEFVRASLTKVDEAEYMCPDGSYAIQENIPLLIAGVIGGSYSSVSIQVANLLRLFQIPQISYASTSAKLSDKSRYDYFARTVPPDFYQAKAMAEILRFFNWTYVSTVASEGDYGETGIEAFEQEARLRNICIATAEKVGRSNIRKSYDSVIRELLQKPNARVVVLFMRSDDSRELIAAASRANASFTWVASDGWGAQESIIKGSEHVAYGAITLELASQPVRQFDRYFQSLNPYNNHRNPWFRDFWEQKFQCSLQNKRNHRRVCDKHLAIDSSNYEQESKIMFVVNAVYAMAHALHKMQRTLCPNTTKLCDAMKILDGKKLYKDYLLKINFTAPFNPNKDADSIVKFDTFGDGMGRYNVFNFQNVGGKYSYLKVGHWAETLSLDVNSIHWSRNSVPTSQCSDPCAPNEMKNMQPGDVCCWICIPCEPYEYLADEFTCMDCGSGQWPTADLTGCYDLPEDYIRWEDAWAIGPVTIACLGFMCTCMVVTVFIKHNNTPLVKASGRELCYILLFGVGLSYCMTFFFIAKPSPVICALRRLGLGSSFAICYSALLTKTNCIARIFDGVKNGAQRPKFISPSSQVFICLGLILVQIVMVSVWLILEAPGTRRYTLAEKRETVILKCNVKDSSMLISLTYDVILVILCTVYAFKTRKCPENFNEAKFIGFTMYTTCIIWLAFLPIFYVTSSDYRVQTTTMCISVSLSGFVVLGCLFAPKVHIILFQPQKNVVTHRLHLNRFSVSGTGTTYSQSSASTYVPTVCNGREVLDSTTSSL
T1 sequence (Q14416 19-872): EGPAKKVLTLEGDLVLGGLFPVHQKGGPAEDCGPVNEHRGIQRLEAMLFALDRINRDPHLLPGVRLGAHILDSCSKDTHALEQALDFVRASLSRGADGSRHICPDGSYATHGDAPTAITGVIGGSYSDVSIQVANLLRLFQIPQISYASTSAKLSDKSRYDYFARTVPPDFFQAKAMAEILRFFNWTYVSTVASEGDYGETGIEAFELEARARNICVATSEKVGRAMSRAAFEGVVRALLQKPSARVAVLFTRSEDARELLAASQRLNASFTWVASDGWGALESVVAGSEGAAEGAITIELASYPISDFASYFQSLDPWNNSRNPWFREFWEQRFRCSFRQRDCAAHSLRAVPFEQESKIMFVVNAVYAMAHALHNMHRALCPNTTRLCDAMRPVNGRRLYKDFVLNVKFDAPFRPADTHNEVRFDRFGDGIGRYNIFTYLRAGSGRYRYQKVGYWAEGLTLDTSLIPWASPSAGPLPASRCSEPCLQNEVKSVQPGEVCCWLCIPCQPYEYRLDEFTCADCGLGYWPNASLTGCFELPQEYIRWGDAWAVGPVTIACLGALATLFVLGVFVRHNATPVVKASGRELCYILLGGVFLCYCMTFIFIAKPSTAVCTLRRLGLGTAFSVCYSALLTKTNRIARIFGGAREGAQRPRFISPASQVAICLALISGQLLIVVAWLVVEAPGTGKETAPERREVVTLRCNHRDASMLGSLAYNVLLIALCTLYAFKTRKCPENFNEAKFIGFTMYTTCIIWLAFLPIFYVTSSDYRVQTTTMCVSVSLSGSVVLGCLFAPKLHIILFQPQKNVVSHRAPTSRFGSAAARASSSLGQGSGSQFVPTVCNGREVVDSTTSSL

`CCOc1ccccc1CCC(C)NCC1(O)CCCCC1.Cl` (racemic) [Fig_5f]: on 320 non-olfactory GPCRs [1] (setting [5]), the “GPCRome screening signal at GRM2” value is 0.9548 and 1.3016 and 1.1 and 0.9506. For the same molecule, the “GPCRome screening signal at TBXA2R” value at 320 non-olfactory GPCRs [2] (setting [5]) is 1.076 and 0.505 and 0.6523 and 0.5698. Besides, at 320 non-olfactory GPCRs [3] (setting [5]), the “GPCRome screening signal at GRM3” value is 0.4086 and 1.387 and 0.6216 and 1.325. In addition, the “GPCRome screening signal at SSTR5” value on 320 non-olfactory GPCRs [4] (setting [5]) was 1.884 and 1.207 and 1.033 and 0.572.

On to `CCOc1cccc2cc(C(C)NCC3(O)CCCCC3)oc12` (centres unmarked) [O4LE6], for which the “GPCRome agonism screen response” value was 1.717 and 0.9934 and 0.846 and 0.4952 on 320 non-olfactory GPCRs [1] (replicate values, Fig_4g); 0.6818 and 0.496 and 0.4453 and 0.576 at 320 non-olfactory GPCRs [2] (replicate values, Fig_4g); 0.5635 and 0.5272 and 0.9256 and 1.931 on 320 non-olfactory GPCRs [3] (replicate values, Fig_4g); 1.067 and 0.3371 and 0.8014 and 0.9752 at 320 non-olfactory GPCRs [4] (replicate values, Fig_4g).
